Literature values as cited in patent publication US11958977B2, “Fluorescently labeled polysaccharide, preparation method therefor, and use thereof” (SUZHOU BAIYUAN GENT CO., LTD., priority 2018, dated 2024).
Structures can show the parent of a compound that is named as a salt.

Settings: Solvent: 0.1M H2SO4

- Quantum yield of the reference compound: 0.56
SMILES: C=C[C@H]1C[N@@]2CC[C@H]1C[C@H]2[C@H](O)c1ccnc2ccc(OC)cc12 [quinine sulfate]
